Test results as given in patent publication US9132141B2 (priority 2012, dated 2015).

Key:
PR8 [1] = assay: Lung viral titers in PR8-infected mice; type: in vivo; conditions: ~7500 TCID50 PR8, 200 μg/mouse i.v. starting on day 2
PR8 [2] = assay: Influenza-induced lung pathology in PR8-infected mice (H&E histology); type: in vivo; conditions: ~7500 TCID50 PR8; 200 μg/mouse i.v. starting on day 2; day 7 post-infection
Experimental: Mice were infected i.n. with 50 μl of PR8 (˜7500 TCID50/mouse). Mice were then injected i.v. with 100 μl of eritoran (200 μg/mouse) starting on day 2 post-infection. Mice were then sacrificed on day 7 post-infection (day […] post-eritoran treatment) and lungs harvested for lung pathology (4 mice/treatment group). Murine lungs were inflated and perfused and fixed with 4% PFA. Fixed sections (8 μm) of paraffin-embedded lungs were stained with hematoxylin and eosin (H&E). Slides were randomized, read blindly, and examined for tissue damage, necrosis, apoptosis, and proinflammatory cellular infiltration. […] Pulse oximetry measurements were performed to confirm these observations.

PR8 [3] = assay: Influenza-induced cytokine and interferon mRNA in lungs of PR8-infected mice (real-time PCR); type: in vivo; conditions: 200 μg/mouse i.v. starting on day 2
PR8 [4] = assay: Influenza-induced serum liver enzyme levels (ALT, AST) in PR8-infected mice; type: in vivo, C57BL/6J WT mice; conditions: 200 μg/mouse i.v. starting on day 2; serum day 7
Experimental: Mice infected i.n. with 50 μl of PR8 (˜7500 TCID50/mouse). Mice injected i.v. with 100 μl of eritoran (200 μg/mouse) starting on day 2 post-infection. Serum was collected on day 7 from C57BL/6J WT mice that were either mock-infected with saline or infected with PR8 and were either left untreated or were treated with eritoran starting on day 2 post-infection. Alanine aminotransaminase (ALT) and aspartate aminotransaminase (AST) were measured (Siemens Healthcare Diagnostics, Ltd.). […] Data represent 2 separate experiments with 4 mice per treatment per experiment.

TLR4 = molecular target: T1, TLR4 (Mus musculus, UniProt Q9JHF9+Q9QUK6); assay: OxPAPC-induced IL-6 gene expression in peritoneal macrophages; type: cell-based; conditions: pretreatment 10 ng/mL for 1 hour, OxPAPC 20 μg/mL
T1 construct: endogenous in cells; host or cells: peritoneal macrophages from wild-type C57BL/6J mice
T1 sequence (Q9QUK6 26-835): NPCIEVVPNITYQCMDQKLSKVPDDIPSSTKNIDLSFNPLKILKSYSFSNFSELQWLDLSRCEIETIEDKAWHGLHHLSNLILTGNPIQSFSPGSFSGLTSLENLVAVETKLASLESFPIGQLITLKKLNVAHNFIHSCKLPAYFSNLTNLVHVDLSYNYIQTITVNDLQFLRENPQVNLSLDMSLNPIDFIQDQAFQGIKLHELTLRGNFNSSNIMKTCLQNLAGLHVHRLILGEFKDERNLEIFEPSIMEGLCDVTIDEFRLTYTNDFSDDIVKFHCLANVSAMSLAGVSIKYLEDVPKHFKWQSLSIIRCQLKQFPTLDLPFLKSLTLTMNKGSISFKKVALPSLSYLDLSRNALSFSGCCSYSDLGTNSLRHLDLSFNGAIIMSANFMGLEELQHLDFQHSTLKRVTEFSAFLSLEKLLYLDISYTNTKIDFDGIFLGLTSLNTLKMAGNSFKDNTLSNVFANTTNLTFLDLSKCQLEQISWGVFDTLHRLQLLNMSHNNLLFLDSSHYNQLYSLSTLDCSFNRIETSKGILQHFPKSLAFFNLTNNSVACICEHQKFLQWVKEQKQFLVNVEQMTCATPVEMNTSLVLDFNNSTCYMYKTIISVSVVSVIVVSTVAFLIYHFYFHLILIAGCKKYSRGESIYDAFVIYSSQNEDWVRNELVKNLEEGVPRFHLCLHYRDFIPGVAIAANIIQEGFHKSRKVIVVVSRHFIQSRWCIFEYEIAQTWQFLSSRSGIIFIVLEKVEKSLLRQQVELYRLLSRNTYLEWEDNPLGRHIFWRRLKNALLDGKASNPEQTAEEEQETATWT
T1 sequence (Q9JHF9 19-160): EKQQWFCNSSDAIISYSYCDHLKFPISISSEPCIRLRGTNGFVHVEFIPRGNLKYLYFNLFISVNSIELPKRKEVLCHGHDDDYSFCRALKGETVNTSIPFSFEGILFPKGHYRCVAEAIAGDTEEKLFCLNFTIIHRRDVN
Experimental: Wild-type C57BL/6J, TLR4^−/−, and TLR2^−/− peritoneal macrophages were pretreated with eritoran (10 ng/mL) for 1 hour and then treated with medium alone, LPS (20 ng/mL), P3C (300 ng/mL), or OxPAPC (20 μg/mL) and RNA expression was measured. Commercially obtained OxPAPC activated IL-6 gene expression in WT and TLR2^−/− mouse peritoneal macrophages, but not in cells from TLR4^−/− mice (FIG. 9). […] Data are means+/−s.e.m. from 1 experiment with samples done in triplicate (*p<0.001, #p<0.05).

PR8 [5] = assay: Oxidized phospholipids in lungs of PR8-infected mice (MALDI-IMS); type: in vivo, mouse; conditions: PR8-infected mice with or without treatment
Excerpt: To assess the effect of eritoran on production of oxidized phospholipids during infection, MALDI-IMS was used to identify alterations in the lipid composition of mouse lungs after PR8, with or without eritoran treatment. […] (FIG. 10a). Results are representative of 4 replicate experiments. The structures of abundant phosphatidylcholine (PC) and predicted oxidized phosphatidylcholine (OxPC) molecules and molecular weights: 1-palmitoyl-2-linoleoyl PC (PLPC) m/z 757.6, 1-palmitoyl-2-arachadonyl PC (PAPC) m/z 782.1, and predicted structures of oxidized PC molecules and molecular weight, 1-palmitoyl-2-(9-oxo)nonanoyl PC (PONPC) m/z 649.4, (PEIPC) 1-palmitoyl-2-(5,6-epoxyisoprostance E2 oyl) PC m/z 828.1 are shown. (FIG. 10b).

PR8 [6] = assay: Survival of PR8-infected IFNβ−/− mice; type: in vivo; conditions: ~7500 TCID50 PR8; treated 2 days post-infection for 5 successive days
Excerpt: Wild-type and IFNβ^−/− mice were infected with ˜7500 TCID50 PR8 and were left either untreated (circles) or treated with eritoran 2 days post-infection, for 5 successive days (squares). (FIG. 11). Data represent the combined results of 2 separate experiments (6 mice per treatment per experiment; WT: untreated vs. eritoran treatment (p<0.0013); IFNβ^−/−: untreated v. eritoran treatment (p=ns).

influenza = assay: Survival of influenza-infected TLR2−/− and CD14−/− mice; type: in vivo; conditions: treated 2 days post-infection for 5 successive days
Excerpt: Normal mice (WT), TLR4^−/−, TLR2^−/−, and CD14^−/− were infected with influenza and then were untreated (closed circles) or treated with eritoran (open circles) 2 days post-infection, for 5 successive days. (FIG. 13a). […] WT data were combined from 5 separate experiments (5-6 mice per treatment per experiment), TLR4^−/− data were combined from 3 separate experiments (5-6 mice per treatment per experiment), CD14^−/− data were combined from 2 separate experiments (4-5 mice per treatment per experiment). WT: untreated vs eritoran (p, 0.0001); TLR4^−/−: untreated vs. eritoran (p=ns); CD14^−/−: untreated vs. eritoran (p=ns); TLR2^−/−: untreated vs. eritoran (p=ns).

[7] = system: A/California/07/2009, H1N1; assay: Direct antiviral effect: virus titration in MDCK cells

How did the “lung viral titers on day 7” value (PR8 [1]; day 7 post-infection) turn out when CCCCCC/C=C\CCCCCCCCCC(=O)N[C@H]1[C@H](OC[C@H]2O[C@H](OP(=O)(O)O)[C@H](NC(=O)CC(=O)CCCCCCCCCCC)[C@@H](OCCCCCCCCCC)[C@@H]2O)O[C@H](COC)[C@@H](OP(=O)(O)O)[C@@H]1OCC[C@@H](CCCCCCC)OC [eritoran, α-D-Glucopyranose, 3-O-decyl-2-deoxy-6-O-[2-deoxy-3-O-[(3R)-3-methoxydecyl)-6-O-methyl-2-[[(-11Z)-1-oxo-11-octadecenyl)amino]-4-O-phosphono-β-D-glucopyranosyl]-2-[(1,3-dioxotetradecyl)amino]-1-(dihydrogen phosphate)] was run?
The value was “further decreased”.

What about the lung viral titers (PR8 [1]; lungs harvested days 2, 4, 6) of the same compound?
The lung viral titers was “statistically significant decrease in lung viral titers”.

What about the “lung sections nearly normal” value (PR8 [2]) of the same compound?
Its value is ~80 % of lung sections.

What about the “lung sections showing inflammatory infiltrates” value (PR8 [2]) of the same compound?
The value was ~20 % of lung sections.

And the “cytokine gene expression in lung” value (PR8 [3]; days 2, 4, 6 post-infection)?
Its value is “significantly reduced cytokine gene expression at each time point”.

What about the “interferon production (mRNA) in lung” value (PR8 [3]; depends on interferon species) of the same compound?
Its value is “variable levels of interferon production compared to control mice”.

What about the “liver enzyme levels (ALT, AST) in serum” value (PR8 [4]) of the same compound?
Its value is “lower levels of liver enzymes post-infection”.

What about the “TLR4-dependent cell activation by OxPAPC (IL-6 gene expression)” value (TLR4) of the same compound?
The value was “substantially inhibited”.

What about the “oxidation products of phospholipids in lung” value (PR8 [5]) of the same compound?
Its value is “detected in greater abundance and intensity in PR8-infected versus mice that were treated with eritoran”.

What about the “protection (survival) in IFNβ−/− mice” value (PR8 [6]) of the same compound?
The value was “does not induce protection”.

What about the “protection (survival) in TLR2−/− or CD14−/− mice” value (influenza) of the same compound?
The value was “ineffective at inducing protection”.

And the Titer ([7]; Experiment 1, 10 ng/mL applied 1 hour prior to virus)?
Its Titer is 1.0 × 10^6 TCID50/ml.

What about the Titer ([7]; Experiment 1, 10 ng/mL applied at the same time as virus) of the same compound?
The Titer was 3.1 × 10^6 TCID50/ml.

And the Titer ([7]; Experiment 2, 10 ng/mL applied 1 hour prior to virus)?
The Titer was 3.4 × 10^5 TCID50/ml.

What about the Titer ([7]; Experiment 2, 10 ng/mL applied at the same time as virus) of the same compound?
Its Titer is 6.3 × 10^6 TCID50/ml.
